According to patent US20260356830A1, “COMPOUNDS FOR MODULATING RET PROTEIN” (Bristol-Myers Squibb Company, priority 2022, published 2026):

Target: T1, CCDC6-RET (Homo sapiens, UniProt P07949+Q16204+Q96SW2)
T1 construct: CCDC6 (natural N-terminal fusion partner, UniProt Q16204); endogenous in cells; host or cells: TPC-1 (parental, papillary thyroid carcinoma)
Test: Cellular RET degradation, AlphaLISA, TPC-1 cell line
Assay type: cell-based
Conditions: for Dmax: TPC1, human, 24 h, read-out: Cell Density TPC-1/CCDC6-RET Ymax %; for DC50: read-out: Cell Density TPC-1/CCDC6-RET DC50, half-maximal degradation concentration, TPC-1 (CCDC6-RET), 24 hrs
Method in brief: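 TPC-1 papillary thyroid carcinoma cells (endogenous CCDC6-RET) in DMEM with 2% FBS, compound-treated 24 h at 37 °C. RET in lysates quantified by AlphaLISA luminescence, normalized to media-only and DMSO wells; DC50 and maximal degradation from 4-parameter logistic fit.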

T1 sequence (Q16204+P07949 fused): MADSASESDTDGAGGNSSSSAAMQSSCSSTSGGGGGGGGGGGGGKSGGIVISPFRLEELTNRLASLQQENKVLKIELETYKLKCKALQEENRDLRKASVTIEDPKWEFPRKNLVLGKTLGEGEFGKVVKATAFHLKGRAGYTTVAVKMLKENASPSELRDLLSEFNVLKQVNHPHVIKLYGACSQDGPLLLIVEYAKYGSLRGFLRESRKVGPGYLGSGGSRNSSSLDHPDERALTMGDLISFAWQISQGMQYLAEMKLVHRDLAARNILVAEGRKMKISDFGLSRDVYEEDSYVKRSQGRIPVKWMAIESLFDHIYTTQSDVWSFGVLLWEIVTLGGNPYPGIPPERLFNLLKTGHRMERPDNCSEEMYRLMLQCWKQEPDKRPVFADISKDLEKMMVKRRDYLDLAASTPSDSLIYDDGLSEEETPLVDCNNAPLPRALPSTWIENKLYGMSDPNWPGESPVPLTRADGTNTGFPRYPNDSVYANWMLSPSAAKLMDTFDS
T1 sequence (Q96SW2 whole entry, the tested form may be a part): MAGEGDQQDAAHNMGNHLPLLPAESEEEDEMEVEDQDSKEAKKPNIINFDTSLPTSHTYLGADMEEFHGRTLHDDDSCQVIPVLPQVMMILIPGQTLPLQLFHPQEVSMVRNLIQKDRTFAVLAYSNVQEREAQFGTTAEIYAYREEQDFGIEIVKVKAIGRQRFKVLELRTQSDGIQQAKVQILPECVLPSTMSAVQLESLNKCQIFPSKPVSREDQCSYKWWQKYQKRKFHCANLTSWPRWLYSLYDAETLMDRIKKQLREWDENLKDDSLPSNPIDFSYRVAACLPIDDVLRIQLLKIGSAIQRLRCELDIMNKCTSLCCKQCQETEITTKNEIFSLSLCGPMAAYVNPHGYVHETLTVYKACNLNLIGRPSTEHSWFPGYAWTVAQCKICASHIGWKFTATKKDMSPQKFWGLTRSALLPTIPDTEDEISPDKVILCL
T1 sequence (Q16531 whole entry partner, the tested form may be a part): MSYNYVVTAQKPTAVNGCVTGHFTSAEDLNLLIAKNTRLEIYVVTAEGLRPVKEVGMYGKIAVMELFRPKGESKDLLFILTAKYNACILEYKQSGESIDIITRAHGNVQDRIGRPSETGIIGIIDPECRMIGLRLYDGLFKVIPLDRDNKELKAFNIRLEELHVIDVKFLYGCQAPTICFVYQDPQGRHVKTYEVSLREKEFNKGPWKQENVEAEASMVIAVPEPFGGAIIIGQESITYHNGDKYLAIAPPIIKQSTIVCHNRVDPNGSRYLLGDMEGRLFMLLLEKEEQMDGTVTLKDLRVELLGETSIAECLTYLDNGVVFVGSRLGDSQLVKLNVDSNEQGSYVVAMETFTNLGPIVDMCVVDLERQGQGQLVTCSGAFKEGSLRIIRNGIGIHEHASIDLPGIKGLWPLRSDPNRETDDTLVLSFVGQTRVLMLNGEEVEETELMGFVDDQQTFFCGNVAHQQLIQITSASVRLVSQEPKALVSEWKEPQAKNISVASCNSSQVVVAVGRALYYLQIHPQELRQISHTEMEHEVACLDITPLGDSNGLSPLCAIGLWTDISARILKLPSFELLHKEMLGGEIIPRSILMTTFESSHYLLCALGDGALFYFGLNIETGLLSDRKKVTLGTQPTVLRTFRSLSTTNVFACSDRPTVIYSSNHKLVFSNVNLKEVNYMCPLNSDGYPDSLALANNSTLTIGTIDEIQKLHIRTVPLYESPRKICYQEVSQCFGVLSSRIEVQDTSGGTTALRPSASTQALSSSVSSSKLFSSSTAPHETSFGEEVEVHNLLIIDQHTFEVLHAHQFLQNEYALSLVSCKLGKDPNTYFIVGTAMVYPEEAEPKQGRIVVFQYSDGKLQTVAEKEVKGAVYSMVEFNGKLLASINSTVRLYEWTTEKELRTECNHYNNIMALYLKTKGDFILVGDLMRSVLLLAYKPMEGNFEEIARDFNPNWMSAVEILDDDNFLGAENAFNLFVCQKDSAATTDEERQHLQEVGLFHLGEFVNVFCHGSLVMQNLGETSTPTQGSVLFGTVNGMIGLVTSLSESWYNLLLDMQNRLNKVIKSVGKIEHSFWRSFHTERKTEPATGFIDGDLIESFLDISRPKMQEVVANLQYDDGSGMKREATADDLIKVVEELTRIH

SMILES	Dmax	DC50
CCOc1cc(-c2ccc(N3CCC(CN(C)C(=O)CCCCCCN4CCC(c5ccc6c(c5)CN(C5CCC(=O)NC5=O)C6=O)CC4)(NC(=O)c4cc(F)ccc4F)CC3)nc2)c2c(C#N)cnn2c1 (stereo not drawn) [Example 140, N-[1-(5-{3-cyano-6-ethoxypyrazolo[1,5-a]pyridin-4-yl}pyridin-2-yl)-4-[(7-{4-[2-(2,6-dioxopiperidin-3-yl)-1-oxo-2,3-dihydro-1H-isoindol-5-yl]piperidin-1-yl}-N-methylheptanamido)methyl]piperidin-4-yl]-2,5-difluorobenzamide]	> 90%	2 to 10 nM
CCOc1cc(-c2ccc(N3CCC(CN4CCN(CCC(=O)N5CCN(c6ccc7c(c6)C(=O)N(C6CCC(=O)NC6=O)C7)CC5)CC4)(NC(=O)c4cc(F)ccc4F)CC3)nc2)c2c(C#N)cnn2c1 (stereo not drawn) [Example 115, N-[1-(5-{3-cyano-6-ethoxypyrazolo[1,5-a]pyridin-4-yl}pyridin-2-yl)-4-{[4-(3-{4-[2-(2,6-dioxopiperidin-3-yl)-3-oxo-2,3-dihydro-1H-isoindol-5-yl]piperazin-1-yl}-3-oxopropyl)piperazin-1-yl]methyl}piperidin-4-yl]-2,5-difluorobenzamide]	60 to 90%	10 to 100 nM
CCOc1cc(-c2ccc(N3CCC(COCCN4CCN(C(=O)CCN5CCN(c6ccc7c(c6)C(=O)N(C6CCC(=O)NC6=O)C7)CC5)CC4)(NC(=O)c4cc(F)ccc4F)CC3)nc2)c2c(C#N)cnn2c1 (stereo not drawn) [Example 33, N-[1-[5-(3-cyano-6-ethoxy-pyrazolo[1,5-a]pyridin-4-yl)-2-pyridyl]-4-[2-[4-[3-[4-[2-(2,6-dioxo-3-piperidyl)-3-oxo-isoindolin-5-yl]piperazin-1-yl]propanoyl]piperazin-1-yl]ethoxymethyl]-4-piperidyl]-2,5-difluoro-benzamide]	60 to 90%	2 to 10 nM

Continued, values first:

Dmax	DC50	SMILES
60 to 90%	100 to 2000 nM	CCOc1cc(-c2ccc(N3CCC(Cc4ccccc4)(NC(=O)CN4CCC(CN5CCC(c6ccc7c(c6)C(=O)N(C6CCC(=O)NC6=O)C7)CC5)CC4)CC3)nc2)c2c(C#N)cnn2c1 (stereo not drawn) [Example 57, N-[4-benzyl-1-[5-(3-cyano-6-ethoxy-pyrazolo[1,5-a]pyridin-4-yl)-2-pyridyl]-4-piperidyl]-2-[4-[[4-[2-(2,6-dioxo-3-piperidyl)-3-oxo-isoindolin-5-yl]-1-piperidyl]methyl]-1-piperidyl]acetamide]
60 to 90%	100 to 2000 nM	CCOc1cc(-c2ccc(N3CCC(C)(CN4CCN(C(=O)CCN5CCC(c6ccc7c(c6)CN(C6CCC(=O)NC6=O)C7=O)CC5)CC4)CC3)nc2)c2c(C#N)cnn2c1 (stereo not drawn) [Example 129, 4-[6-(4-{[4-(3-{4-[2-(2,6-dioxopiperidin-3-yl)-1-oxo-2,3-dihydro-1H-isoindol-5-yl]piperidin-1-yl}propanoyl)piperazin-1-yl]methyl}-4-methylpiperidin-1-yl)pyridin-3-yl]-6-ethoxypyrazolo[1,5-a]pyridine-3-carbonitrile]
> 90%	10 to 100 nM	CCOc1cc(-c2ccc(N3CCC(CN4CCN(C(=O)CCCCCCCCCCCCNC(=O)COc5cccc6c5CN(C5CCC(=O)NC5=O)C6=O)CC4)(NC(=O)c4cc(F)ccc4F)CC3)nc2)c2c(C#N)cnn2c1 (stereo not drawn) [Example 29, N-[1-(5-{3-cyano-6-ethoxypyrazolo[1,5-a]pyridin-4-yl}pyridin-2-yl)-4-({4-[13-(2-{[2-(2,6-dioxopiperidin-3-yl)-1-oxo-2,3-dihydro-1H-isoindol-4-yl]oxy}acetamido)tridecanoyl]piperazin-1-yl}methyl)piperidin-4-yl]-2,5-difluorobenzamide]
